Source: article PMC10205807, “Cross-species comparison in nonclinical pharmacokinetics of lenvatinib by a simple HPLC with ultraviolet detection” (Scientific Reports, 2023)

Legend:
[1] = PK study in rats (intravenous and oral); type: in vivo; conditions: for Tmax: median (range)
Experimental: Sprague–Dawley male rats were purchased from Charles River Japan, Inc., and were used for the PK study after 8 days of an acclimatization period. Rats were 8 weeks old when lenvatinib was dosed and the body weight range was 0.28–0.31 (kg). Rats were fasted a day before the PK study and feeding was resumed 4 h postdose. Dosing solution of lenvatinib used in the rat PK study was the same as that in the mice PK study, and the dose levels were 3 mg/kg for the intravenous administration via femoral vein, and 3, 10, and 30 mg/kg for the oral administration by gastric gavage (n = 4/dose). Approximately 0.25 mL of blood samples were obtained from the jugular vein using heparinized syringes at predose, and at 5, 15 and 30 min, and 1, 2, 4, 6, 8, 12 and 24 h postdose. Plasma sample preparation and sample storage were the same as those in the mice PK study.
PK parameters of lenvatinib were estimated by model independent analysis using a WinNonlin program (Version 4.1, Pharsight Corporation, Mountain View, CA). The time to reach the maximum plasma concentration (Tmax) and the maximum plasma concentration (Cmax) values were obtained directly from the plasma concentration data. Terminal half-life (T1/2) was calculated by ln2/ke, where ke is the slope of the regression line that fits the portion of the terminal phase (at least three time points) in the log-linear concentration–time curve. AUC0–t and AUMC0–t, the area under the concentration–time curves and the area under the first moment curve, from time = zero to time = t, respectively, were calculated using the lenvatinib concentrations in plasma by the linear/log trapezoidal method. AUC0–inf was calculated by AUC0–t + Ct/ke, and AUMC0–inf was AUMC0–t + Ct × t/ke + Ct/(ke)^2, where Ct is the last measurable concentration at time = t. The plasma concentration at time zero for the intravenous dose was extrapolated, while zero was used for the oral doses. Mean residence time (MRT), total plasma clearance (CLtot) and the volume of distribution at steady state (Vdss) were calculated by AUMC0–inf/AUC0–inf, Dose/AUC0–inf and CLtot × MRT, respectively. Oral bioavailability (F) was estimated by comparing dose-normalized AUC0–inf after oral (AUC0–inf.po) and intravenous (AUC0–inf.iv) administration as follows: F (%) = (AUC0–inf.po/AUC0–inf.iv) × 100.

plasma protein [2] = assay: in vitro plasma protein binding, mice; type: in vitro ADME; conditions: mouse
plasma protein [3] = assay: in vitro plasma protein binding, rats; type: in vitro ADME
plasma protein [4] = assay: in vitro plasma protein binding, monkeys; type: in vitro ADME
[5] = Allometric PK scaling, prediction of CLint in humans; conditions: cross-species allometric scaling, BW 70 kg
Experimental: One of the typical approaches for predicting human PK from animal PK is empirical allometric scaling. As the CLtot of lenvatinib was relatively low and Vdss of lenvatinib was low to medium, thus it is theoretically preferable to correct by fp for both parameters. The CLtot divided by fp (CLtot/fp) or Vdss divided by fp (Vdss/fp) were plotted against body weight (BW) by log–log scale, and a linear regression was performed to estimate a slope and intercept for linear regression. The BW used in the calculation was 0.02, 0.2, 10, 5, and 70 kg for mice, rats, dogs, monkeys, and humans, respectively. CLtot and Vdss of lenvatinib in humans were predicted by using the regression line and the BW of humans. As no PK data of lenvatinib are available for CLtot and Vdss, which can be estimated only from intravenous administration PK study in humans, it is not possible to assess predictability of the allometric scaling for these two parameters of lenvatinib in humans. However, it is possible to predict exposure of lenvatinib after oral administration (AUCoral) in humans from the allometry scaling of hepatic intrinsic clearance (CLint). […]

[6] = phase-1 clinical trial, oral PK in humans; type: in vivo; conditions: human, plasma; calculated from AUCoral at 9 mg oral dose in a phase-1 study and fp 0.0172; read-out: observed CLint in humans (converted)
[7] = male, Sprague-Dawley, rat, plasma, intravenous 3 mg/kg
[8] = male, Sprague-Dawley, rat, plasma, oral 3 mg/kg
[9] = male, Sprague-Dawley, rat, plasma, oral 10 mg/kg
[10] = male, Sprague-Dawley, rat, plasma, oral 30 mg/kg

COc1cc2nccc(Oc3ccc(NC(=O)NC4CC4)c(Cl)c3)c2cc1C(N)=O [lenvatinib, Lenvatinib]
CLint (hepatic intrinsic clearance) ([1]; estimated from oral PK, Fa and Fg assumed unity, BW 0.2 kg): 1440 mL/h
AUC(0-inf) [1, 7]: 30100 ± 1330 ng·h/mL
MRT [1, 7]: 3.93 ± 0.19 h
C0 ([1]; male, Sprague-Dawley, rat, plasma, intravenous 3 mg/kg, extrapolated): 16000 ± 416 ng/mL
clearance ([1]; male, Sprague-Dawley, rat, plasma, intravenous 3 mg/kg, read-out: CLtot (converted)): 1.67 mL/min/kg
Vd ([1]; male, Sprague-Dawley, rat, plasma, intravenous 3 mg/kg, read-out: Vdss): 0.392 ± 0.0099 L/kg
half-life ([1]; male, Sprague-Dawley, rat, plasma, iv, 3 mg/kg, intravenous 3 mg/kg): 3.65 ± 0.09 h
AUC(0-inf) [1, 8]: 20700 ± 3120 ng·h/mL
Cmax [1, 8]: 6170 ± 1370 ng/mL
MRT [1, 8]: 4.46 ± 0.16 h
bioavailability ([1]; male, Sprague-Dawley, rat, plasma, oral 3 mg/kg vs intravenous 3 mg/kg, read-out: F (oral bioavailability)): 68.7%
Tmax [1, 8]: 0.5 h
AUC(0-inf) [1, 9]: 78300 ± 6580 ng·h/mL
Cmax [1, 9]: 16600 ± 1240 ng/mL
MRT [1, 9]: 6.31 ± 0.53 h
Tmax [1, 9]: 0.5 h
AUC(0-inf) [1, 10]: 146000 ± 18500 ng·h/mL
Cmax [1, 10]: 23200 ± 4770 ng/mL
MRT [1, 10]: 6.86 ± 1.02 h
Tmax [1, 10]: 1 h
half-life ([1]; male, Sprague-Dawley, rat, plasma, po, 3 mg/kg, oral 3 mg/kg): 3.61 ± 0.21 h
half-life ([1]; male, Sprague-Dawley, rat, plasma, po, 10 mg/kg, oral 10 mg/kg): 5.27 ± 0.33 h
half-life ([1]; male, Sprague-Dawley, rat, plasma, po, 30 mg/kg, across 3, 10, and 30 mg/kg): 3.61 to 5.27 h
half-life ([1]; male, Sprague-Dawley, rat, plasma, po, 30 mg/kg, oral 30 mg/kg): 4.95 ± 0.77 h
fraction unbound (plasma protein [2]; plasma, mice, 0.3–30 μg/mL, read-out: average fp (unbound fraction in plasma)): 0.033
fraction unbound at 0.3 μg/mL (plasma protein [2]; mice plasma, 0.3 μg/mL): 0.031
fraction unbound at 0.3 μg/mL (plasma protein [3]; rat plasma, 0.3 μg/mL): 0.019
fraction unbound (plasma protein [3]; rat, plasma, rats, 0.3–30 μg/mL, read-out: average fp (unbound fraction in plasma)): 0.02
fraction unbound at 0.3 μg/mL (plasma protein [4]; monkey plasma, 0.3 μg/mL): 0.039
fraction unbound (plasma protein [4]; monkey, plasma, monkeys, 0.3–30 μg/mL, read-out: average fp (unbound fraction in plasma)): 0.0394
CLint predicted in humans [5]: 78.4 mL/min/kg
CLint scaled [6]: 75.1 mL/min/kg
